Type in all cases: in vivo
The test system of test [1] is Spodoptera frugiperda. In words: Spodoptera frugiperda test (leaf application) on transgenic cotton. As to conditions: 24 h, after 1 d. The text has this:
(§1) The expected activity for a given combination of two (or more) active compounds can be calculated (cf. COLBY, S. R.; “Calculating Synergistic and Antagonistic Responses of Herbicide Combinations”, Weeds 15, pages 20-22, 1967):′
(§2) If • X=the kill rate, expressed in % of the untreated control, when employing active compound A at an application rate of m ppm or m g/ha, • Y=the kill rate, expressed in % of the untreated control, when employing active compound B at an application rate of n ppm or n g/ha, • Z=the kill rate, expressed in % of the untreated control, when employing active compound C at an application rate of r ppm or r g/ha, • E=the kill rate, expressed in % of the untreated control, when employing active compounds A and B and C at application rates of m, n, and r ppm or m, n, and r g/ha, then for a combination of two ore more components
(§3) If the actual insecticidal kill rate is higher than the calculated one, the kill rates of the combination are super additive, i.e. a synergistic effect is present. In this case, the kill rate that is actually observed has to be higher than the value, calculated using the formula above, for the expected kill rate (E).
Transgenic cotton plants containing lepidoptera and herbicide resistance were treated with the respective products against the fall army worm (Spodoptera frugiperda).
(§4) After the specified period of time, the mortality in % is determined. 100% means that all the caterpillars have been killed; 0% means that none of the caterpillars have been killed.

A further test relates to Spodoptera exigua. In words: Spodoptera exigua test (leaf application) on transgenic corn. As to conditions: 96 h, after 4 d.
Source text: as §1, §2, §3
Transgenic corn plants containing lepidoptera, coleoptera and/or herbicide resistance were treated with the respective products against the beet army worm (Spodoptera exigua).
as §4

The test system of test [2] is Spodoptera frugiperda. In words: Spodoptera frugiperda test (leaf application) on transgenic corn. As to conditions: 96 h, after 4 d.
Source text: as §1, §2
(§5) If the actual insecticidal kill rate is higher than the calculated one, the kill rates of the combination are super additive, i.e. a synergistic effect is present. In this case, the kill rate that is actually observed has to be higher than the value, calculated using the formula above, for the expected kill rate (E). […]
(§6) After the specified period of time, the mortality in % is determined. […]

Test [3] has as its system Spodoptera frugiperda. Briefly: Spodoptera frugiperda test (drench application) on transgenic corn. The conditions noted are these: soil, 96 h, after 4 d.
Source text: as §1, §2, §5, §6

In general, mortality refers to the share of the test organisms that died. Turning to `CC[S+]([O-])c1c(C#N)nn(-c2c(Cl)cc(C(F)(F)F)cc2Cl)c1N` (stereo not shown) [Ethiprole, ethiprole], the mortality at 20 ppm in the test on Spodoptera frugiperda [1] turned out to be 0%.

Take `N#Cc1nn(-c2c(Cl)cc(C(F)(F)F)cc2Cl)c(N)c1[S+]([O-])C(F)(F)F` (stereo not shown) [Fipronil, fipronil]: the mortality at 20 ppm in the test with Spodoptera frugiperda [1] and with Spodoptera frugiperda [3] (20 ppm) was 0% in each case. In addition, the results for the mortality at 4 ppm in the test with Spodoptera exigua (4 ppm) and with Spodoptera frugiperda [2] (4 ppm) were 0% and 15%, respectively.

With `O=[N+]([O-])NC1=NCCN1Cc1ccc(Cl)nc1` [Imidacloprid, imidacloprid], the mortality at 100 ppm was 50% in the test on Spodoptera frugiperda [1] (100 ppm), 10% in the test with Spodoptera exigua (100 ppm), 15% with Spodoptera frugiperda [2] (100 ppm) and 0% with Spodoptera frugiperda [3] (100 ppm). Besides, the mortality at 20 ppm with Spodoptera exigua (20 ppm) was 0%.

The values are drawn from patent publication US20120035135A1, “Treatment of Transgenic Crops with Mixtures of Fiproles and Chloronicotinyls” (Bayer CropScience AG, priority 2008, published 2012).
